In ChEMBL document CHEMBL1212733, “Chemical genomics in Escherichia coli identifies an inhibitor of bacterial lipoprotein targeting” (Nat Chem Biol, 2009):
In brackets after ≈: the same amount, converted by molar mass. Activity calls are given as the source filed them. The rule behind the calls is not given here.

Tests used:
[1] = tested on: Escherichia coli; test: Antibacterial activity against Escherichia coli K-12 MG1655 after 16 hrs by microbroth dilution method; format: functional; details: K-12 MG1655, 16 h
[2] = target: Small ribosomal subunit protein bS18 (Escherichia coli (strain K12)) (UniProt P0A7T7); test: Inhibition of IPTG-stimulated Escherichia coli K-12 rpSR at 4 fold MIC by microarray analysis
[3] = tested on: Staphylococcus aureus; test: Antibacterial activity against Staphylococcus aureus after 16 hrs by microbroth dilution method; format: functional
[4] = tested on: Candida albicans; test: Antifungal activity against Candida albicans after 16 hrs by microbroth dilution method; format: functional
[5] = tested on: Pseudomonas aeruginosa; test: Antibacterial activity against Pseudomonas aeruginosa PAO1 after 16 hrs by microbroth dilution method; format: functional; details: PAO1, 16 h
[6] = tested on: Escherichia coli; test: Antibacterial activity against Escherichia coli ATCC 25922 after 16 hrs by microbroth dilution method; format: functional; details: ATCC 25922, 16 h
[7] = tested on: Burkholderia cepacia; test: Antibacterial activity against Burkholderia cepacia B154408 after 16 hrs by microbroth dilution method; format: functional; details: B154408, 16 h
[8] = tested on: HeLa; test: Cytotoxicity against human HeLa cells after 24 hrs by Cell Titre-Glo luminescent assay; format: cell-based
[9] = tested on: Stenotrophomonas maltophilia; test: Antibacterial activity against Stenotrophomonas maltophilia B22020 after 16 hrs by microbroth dilution method; format: functional; details: B22020, 16 h
[10] = tested on: Micrococcus luteus; test: Antibacterial activity against Micrococcus luteus after 16 hrs by microbroth dilution method; format: functional
[11] = tested on: Bacillus subtilis; test: Antibacterial activity against Bacillus subtilis 168 after 16 hrs by microbroth dilution method; format: functional; details: subsp. subtilis str. 168, 16 h
[12] = target: tRNA threonylcarbamoyladenosine biosynthesis protein TsaE (Escherichia coli (strain K12)) (UniProt P0AF67); test: Inhibition of IPTG-stimulated Escherichia coli K-12 yjeE at 4 fold MIC by microarray analysis
[13] = target: Small ribosomal subunit protein bS18 (Escherichia coli (strain K12)) (UniProt P0A7T7); test: Inhibition of IPTG-stimulated Escherichia coli K-12 rpSR at 8 fold MIC by microarray analysis
[14] = target: tRNA threonylcarbamoyladenosine biosynthesis protein TsaE (Escherichia coli (strain K12)) (UniProt P0AF67); test: Inhibition of IPTG-stimulated Escherichia coli K-12 yjeE at 8 fold MIC by microarray analysis
[15] = target: T1, Dihydrofolate synthase/folylpolyglutamate synthase (Escherichia coli (strain K12)) (UniProt P08192); test: Inhibition of IPTG-stimulated Escherichia coli K-12 folC at 4 fold MIC by microarray analysis
T1 sequence (whole entry): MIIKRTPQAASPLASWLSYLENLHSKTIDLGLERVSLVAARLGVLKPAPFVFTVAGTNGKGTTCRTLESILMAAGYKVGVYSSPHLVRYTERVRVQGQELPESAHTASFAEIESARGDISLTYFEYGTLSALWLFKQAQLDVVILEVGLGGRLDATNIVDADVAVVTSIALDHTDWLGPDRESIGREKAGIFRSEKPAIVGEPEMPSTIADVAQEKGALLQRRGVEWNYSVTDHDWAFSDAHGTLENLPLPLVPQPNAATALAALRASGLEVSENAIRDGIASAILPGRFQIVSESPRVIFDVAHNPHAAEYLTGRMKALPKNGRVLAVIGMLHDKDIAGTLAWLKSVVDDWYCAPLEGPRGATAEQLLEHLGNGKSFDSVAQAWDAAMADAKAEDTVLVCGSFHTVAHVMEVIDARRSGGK

[16] = target: T2, Outer membrane protein TolC (Escherichia coli (strain K12)) (UniProt P02930); test: Inhibition of IPTG-stimulated Escherichia coli K-12 tolC at 8 fold MIC by microarray analysis
T2 sequence (whole entry): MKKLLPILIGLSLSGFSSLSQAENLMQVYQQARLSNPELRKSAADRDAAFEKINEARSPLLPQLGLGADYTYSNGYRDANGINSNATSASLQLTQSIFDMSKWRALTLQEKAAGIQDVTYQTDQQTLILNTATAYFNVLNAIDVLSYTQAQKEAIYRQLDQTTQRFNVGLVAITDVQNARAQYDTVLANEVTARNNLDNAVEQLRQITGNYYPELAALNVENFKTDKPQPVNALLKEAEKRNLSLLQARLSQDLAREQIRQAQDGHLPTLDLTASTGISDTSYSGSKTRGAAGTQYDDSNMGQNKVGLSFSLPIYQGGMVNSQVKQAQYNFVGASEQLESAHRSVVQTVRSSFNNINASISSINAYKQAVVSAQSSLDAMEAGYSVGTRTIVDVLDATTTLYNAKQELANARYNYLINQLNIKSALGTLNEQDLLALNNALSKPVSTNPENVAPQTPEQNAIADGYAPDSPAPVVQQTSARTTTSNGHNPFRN

[17] = target: T2, Outer membrane protein TolC (Escherichia coli (strain K12)); test: Inhibition of IPTG-stimulated Escherichia coli K-12 tolC at 4 fold MIC by microarray analysis
[18] = target: Intermembrane phospholipid transport system binding protein MlaB (Escherichia coli (strain K12)) (UniProt P64602); test: Inhibition of IPTG-stimulated Escherichia coli K-12 yrbB at 4 fold MIC by microarray analysis
Intermembrane phospholipid transport system binding protein MlaB (Escherichia coli (strain K12)), sequence (P64602 whole entry): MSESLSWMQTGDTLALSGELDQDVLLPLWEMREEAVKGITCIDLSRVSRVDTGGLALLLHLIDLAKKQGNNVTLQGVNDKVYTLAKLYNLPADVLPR

[19] = target: Multifunctional CCA protein (Escherichia coli (strain K12)) (UniProt P06961); test: Inhibition of IPTG-stimulated Escherichia coli K-12 cca at 4 fold MIC by microarray analysis
Multifunctional CCA protein (Escherichia coli (strain K12)), sequence (P06961 whole entry): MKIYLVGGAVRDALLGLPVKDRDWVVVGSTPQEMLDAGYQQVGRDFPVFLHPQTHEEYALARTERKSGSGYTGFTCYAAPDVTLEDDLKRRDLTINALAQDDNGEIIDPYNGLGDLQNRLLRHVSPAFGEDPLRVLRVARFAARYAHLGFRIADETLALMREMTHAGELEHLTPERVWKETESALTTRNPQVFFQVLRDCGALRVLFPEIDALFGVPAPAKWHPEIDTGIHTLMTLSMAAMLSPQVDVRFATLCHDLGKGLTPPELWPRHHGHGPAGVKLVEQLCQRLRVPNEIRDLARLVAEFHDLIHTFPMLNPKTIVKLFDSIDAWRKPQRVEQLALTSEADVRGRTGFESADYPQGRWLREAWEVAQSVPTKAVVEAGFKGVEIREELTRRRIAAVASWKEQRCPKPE

[20] = target: T3, Uncharacterized protein YdiL (Escherichia coli (strain K12)) (UniProt P76196); test: Inhibition of IPTG-stimulated Escherichia coli K-12 ydiL at 16 fold MIC by microarray analysis
T3 sequence (whole entry): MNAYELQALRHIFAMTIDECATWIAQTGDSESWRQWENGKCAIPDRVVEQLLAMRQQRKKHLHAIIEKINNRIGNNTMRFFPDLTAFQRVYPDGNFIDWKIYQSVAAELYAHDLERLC

[21] = target: tRNA(Ile)-lysidine synthase (Escherichia coli (strain K12)) (UniProt P52097); test: Inhibition of IPTG-stimulated Escherichia coli K-12 mesJ at 4 fold MIC by microarray analysis
tRNA(Ile)-lysidine synthase (Escherichia coli (strain K12)), sequence (P52097 whole entry): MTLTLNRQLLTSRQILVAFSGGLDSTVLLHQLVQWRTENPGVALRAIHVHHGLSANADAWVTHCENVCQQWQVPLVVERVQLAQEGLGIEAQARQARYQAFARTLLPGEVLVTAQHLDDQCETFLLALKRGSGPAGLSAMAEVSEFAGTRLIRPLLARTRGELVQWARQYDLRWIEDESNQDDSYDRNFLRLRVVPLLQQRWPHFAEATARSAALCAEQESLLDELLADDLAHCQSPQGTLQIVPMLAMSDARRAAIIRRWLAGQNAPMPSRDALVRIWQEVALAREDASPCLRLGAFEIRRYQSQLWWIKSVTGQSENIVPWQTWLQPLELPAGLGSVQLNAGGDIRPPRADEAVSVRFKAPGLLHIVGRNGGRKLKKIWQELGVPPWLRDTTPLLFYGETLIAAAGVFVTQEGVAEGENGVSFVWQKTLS

[22] = target: Thymidylate kinase (Escherichia coli (strain K12)) (UniProt P0A720); test: Inhibition of IPTG-stimulated Escherichia coli K-12 tmk at 4 fold MIC by microarray analysis
Thymidylate kinase (Escherichia coli (strain K12)), sequence (P0A720 whole entry): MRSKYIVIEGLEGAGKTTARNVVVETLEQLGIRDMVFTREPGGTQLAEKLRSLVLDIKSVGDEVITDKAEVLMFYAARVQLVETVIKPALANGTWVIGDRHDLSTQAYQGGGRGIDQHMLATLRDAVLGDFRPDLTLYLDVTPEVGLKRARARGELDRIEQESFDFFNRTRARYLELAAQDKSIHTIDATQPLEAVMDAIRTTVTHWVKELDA

[23] = target: T3, Uncharacterized protein YdiL (Escherichia coli (strain K12)); test: Inhibition of IPTG-stimulated Escherichia coli K-12 ydiL at 8 fold MIC by microarray analysis
[24] = target: Antitoxin YefM (Escherichia coli (strain K12)) (UniProt P69346); test: Inhibition of IPTG-stimulated Escherichia coli K-12 yefM at 4 fold MIC by microarray analysis
Antitoxin YefM (Escherichia coli (strain K12)), sequence (P69346 whole entry): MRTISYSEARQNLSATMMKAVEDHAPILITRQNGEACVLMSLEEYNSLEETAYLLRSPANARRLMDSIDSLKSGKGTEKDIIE

[25] = target: Protein YdfW (Escherichia coli (strain K12)) (UniProt P76164); test: Inhibition of IPTG-stimulated Escherichia coli K-12 ydfW at 4 fold MIC by microarray analysis
Protein YdfW (Escherichia coli (strain K12)), sequence (P76164 whole entry): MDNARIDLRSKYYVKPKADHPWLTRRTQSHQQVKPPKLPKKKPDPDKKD

[26] = target: Large ribosomal subunit protein uL2 (Escherichia coli (strain K12)) (UniProt P60422); test: Inhibition of IPTG-stimulated Escherichia coli K-12 rplB at 4 fold MIC by microarray analysis
[27] = target: D-alanine--D-alanine ligase B (Escherichia coli K-12) (UniProt P07862); test: Inhibition of IPTG-stimulated Escherichia coli K-12 ddlB at 4 fold MIC by microarray analysis
[28] = target: Phosphatidylglycerol--prolipoprotein diacylglyceryl transferase (Escherichia coli (strain K12)) (UniProt P60955); test: Inhibition of IPTG-stimulated Escherichia coli K-12 umpA at 4 fold MIC by microarray analysis
Phosphatidylglycerol--prolipoprotein diacylglyceryl transferase (Escherichia coli (strain K12)), sequence (P60955 whole entry): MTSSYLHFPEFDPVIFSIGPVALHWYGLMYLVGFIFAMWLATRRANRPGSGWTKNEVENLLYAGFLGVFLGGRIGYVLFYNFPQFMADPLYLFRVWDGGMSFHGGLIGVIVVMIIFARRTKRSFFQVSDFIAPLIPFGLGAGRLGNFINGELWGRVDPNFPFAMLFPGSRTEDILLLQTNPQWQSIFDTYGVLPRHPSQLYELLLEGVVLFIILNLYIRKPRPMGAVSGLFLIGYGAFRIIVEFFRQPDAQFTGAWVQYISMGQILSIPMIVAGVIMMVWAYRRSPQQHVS

[29] = target: Large ribosomal subunit protein bL28 (Escherichia coli (strain K12)) (UniProt P0A7M2); test: Inhibition of IPTG-stimulated Escherichia coli K-12 rpmB at 4 fold MIC by microarray analysis
[30] = target: UDP-N-acetylglucosamine 1-carboxyvinyltransferase (Escherichia coli K-12) (UniProt P0A749); test: Inhibition of IPTG-stimulated Escherichia coli K-12 murA at 4 fold MIC by microarray analysis
UDP-N-acetylglucosamine 1-carboxyvinyltransferase (Escherichia coli K-12), sequence (P0A749 whole entry): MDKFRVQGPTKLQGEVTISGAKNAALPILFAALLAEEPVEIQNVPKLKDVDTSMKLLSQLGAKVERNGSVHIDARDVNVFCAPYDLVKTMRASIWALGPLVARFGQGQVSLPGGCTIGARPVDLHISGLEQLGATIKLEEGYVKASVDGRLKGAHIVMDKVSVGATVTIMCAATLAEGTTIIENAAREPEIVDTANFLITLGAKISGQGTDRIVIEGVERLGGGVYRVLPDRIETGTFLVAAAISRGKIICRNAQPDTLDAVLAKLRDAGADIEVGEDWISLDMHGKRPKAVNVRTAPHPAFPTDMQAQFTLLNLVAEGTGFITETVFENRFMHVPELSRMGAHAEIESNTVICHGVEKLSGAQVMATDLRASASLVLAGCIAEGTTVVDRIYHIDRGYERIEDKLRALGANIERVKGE

[31] = target: Glycerate 3-kinase (Escherichia coli (strain K12)) (UniProt P77364); test: Inhibition of IPTG-stimulated Escherichia coli K-12 glxK at 4 fold MIC by microarray analysis
Glycerate 3-kinase (Escherichia coli (strain K12)), sequence (P77364 whole entry): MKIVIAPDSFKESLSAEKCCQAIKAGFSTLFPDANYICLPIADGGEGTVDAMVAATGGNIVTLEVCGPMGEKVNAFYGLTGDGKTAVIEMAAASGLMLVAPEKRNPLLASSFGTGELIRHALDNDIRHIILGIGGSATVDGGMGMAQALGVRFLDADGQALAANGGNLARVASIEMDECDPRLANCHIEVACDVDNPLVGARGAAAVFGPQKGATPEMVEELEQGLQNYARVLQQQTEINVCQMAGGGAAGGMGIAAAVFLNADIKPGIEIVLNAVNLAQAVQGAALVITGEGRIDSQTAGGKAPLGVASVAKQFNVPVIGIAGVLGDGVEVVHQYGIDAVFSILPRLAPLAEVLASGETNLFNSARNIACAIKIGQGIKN

[32] = target: T2, Outer membrane protein TolC (Escherichia coli (strain K12)); test: Inhibition of IPTG-stimulated Escherichia coli K-12 tolC at 16 fold MIC by microarray analysis
[33] = target: Long-chain fatty acid transport protein (Escherichia coli (strain K12)) (UniProt P10384); test: Inhibition of IPTG-stimulated Escherichia coli K-12 fadl at 4 fold MIC by microarray analysis
Long-chain fatty acid transport protein (Escherichia coli (strain K12)), sequence (P10384 whole entry): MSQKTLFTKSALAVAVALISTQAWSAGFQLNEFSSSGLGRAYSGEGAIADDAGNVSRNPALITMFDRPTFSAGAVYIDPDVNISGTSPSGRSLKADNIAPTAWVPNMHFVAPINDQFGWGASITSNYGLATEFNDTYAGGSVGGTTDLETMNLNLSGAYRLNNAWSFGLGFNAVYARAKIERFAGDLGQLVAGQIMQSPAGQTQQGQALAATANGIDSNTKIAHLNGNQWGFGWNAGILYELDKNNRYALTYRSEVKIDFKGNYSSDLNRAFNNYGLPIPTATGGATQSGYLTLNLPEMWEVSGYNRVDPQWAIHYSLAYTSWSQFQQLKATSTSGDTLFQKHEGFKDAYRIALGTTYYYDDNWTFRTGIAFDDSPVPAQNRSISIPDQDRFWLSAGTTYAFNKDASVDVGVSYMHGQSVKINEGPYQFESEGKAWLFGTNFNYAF

[34] = target: Cell division protein FtsX (Escherichia coli (strain K12)) (UniProt P0AC30); test: Inhibition of IPTG-stimulated Escherichia coli K-12 ftsX at 4 fold MIC by microarray analysis
[35] = target: Transcriptional regulatory protein BaeR (Escherichia coli (strain K12)) (UniProt P69228); test: Inhibition of IPTG-stimulated Escherichia coli K-12 baeR at 4 fold MIC by microarray analysis
Transcriptional regulatory protein BaeR (Escherichia coli (strain K12)), sequence (P69228 whole entry): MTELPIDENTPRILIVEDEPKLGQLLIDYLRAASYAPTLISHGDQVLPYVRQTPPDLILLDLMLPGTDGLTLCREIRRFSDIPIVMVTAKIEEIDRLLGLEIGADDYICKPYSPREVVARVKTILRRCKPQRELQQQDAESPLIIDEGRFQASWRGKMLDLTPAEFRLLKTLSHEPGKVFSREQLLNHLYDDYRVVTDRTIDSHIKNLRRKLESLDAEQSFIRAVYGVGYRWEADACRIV

[36] = target: Glutamyl-tRNA reductase (Escherichia coli (strain K12)) (UniProt P0A6X1); test: Inhibition of IPTG-stimulated Escherichia coli K-12 hemA at 4 fold MIC by microarray analysis
Glutamyl-tRNA reductase (Escherichia coli (strain K12)), sequence (P0A6X1 whole entry): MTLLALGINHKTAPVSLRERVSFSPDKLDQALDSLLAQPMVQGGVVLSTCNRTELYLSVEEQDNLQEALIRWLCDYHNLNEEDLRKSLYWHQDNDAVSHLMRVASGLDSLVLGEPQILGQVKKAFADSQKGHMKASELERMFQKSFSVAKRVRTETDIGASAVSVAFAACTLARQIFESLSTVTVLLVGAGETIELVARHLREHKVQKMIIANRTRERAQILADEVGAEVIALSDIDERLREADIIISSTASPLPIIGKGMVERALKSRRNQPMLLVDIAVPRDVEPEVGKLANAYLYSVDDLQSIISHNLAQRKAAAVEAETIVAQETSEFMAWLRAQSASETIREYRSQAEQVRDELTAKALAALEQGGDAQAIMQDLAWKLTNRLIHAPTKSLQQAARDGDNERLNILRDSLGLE

[37] = target: 4-hydroxy-tetrahydrodipicolinate reductase (Escherichia coli (strain K12)) (UniProt P04036); test: Inhibition of IPTG-stimulated Escherichia coli K-12 dapB at 4 fold MIC by microarray analysis
4-hydroxy-tetrahydrodipicolinate reductase (Escherichia coli (strain K12)), sequence (P04036 whole entry): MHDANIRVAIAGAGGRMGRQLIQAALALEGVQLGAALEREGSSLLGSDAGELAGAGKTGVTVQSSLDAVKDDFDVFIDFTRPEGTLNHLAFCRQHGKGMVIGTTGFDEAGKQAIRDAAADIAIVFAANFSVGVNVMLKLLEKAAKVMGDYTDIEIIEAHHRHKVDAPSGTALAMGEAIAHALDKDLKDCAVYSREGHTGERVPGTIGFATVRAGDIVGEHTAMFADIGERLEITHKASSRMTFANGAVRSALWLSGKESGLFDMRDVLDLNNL

[38] = target: Cell shape-determining protein MreC (Escherichia coli (strain K12)) (UniProt P16926); test: Inhibition of IPTG-stimulated Escherichia coli K-12 mreC at 4 fold MIC by microarray analysis
Cell shape-determining protein MreC (Escherichia coli (strain K12)), sequence (P16926 whole entry): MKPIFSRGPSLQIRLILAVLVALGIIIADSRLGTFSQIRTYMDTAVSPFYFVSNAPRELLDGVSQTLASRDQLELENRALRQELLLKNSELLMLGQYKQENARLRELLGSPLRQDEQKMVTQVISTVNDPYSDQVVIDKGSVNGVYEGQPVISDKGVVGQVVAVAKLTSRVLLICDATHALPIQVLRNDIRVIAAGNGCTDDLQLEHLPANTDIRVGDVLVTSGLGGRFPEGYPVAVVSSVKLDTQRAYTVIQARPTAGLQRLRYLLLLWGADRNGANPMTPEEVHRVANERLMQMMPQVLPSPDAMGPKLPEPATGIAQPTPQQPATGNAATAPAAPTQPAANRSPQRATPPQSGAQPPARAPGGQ

[39] = target: UDP-N-acetylmuramoylalanine--D-glutamate ligase (Escherichia coli K-12) (UniProt P14900); test: Inhibition of IPTG-stimulated Escherichia coli K-12 murD at 4 fold MIC by microarray analysis
UDP-N-acetylmuramoylalanine--D-glutamate ligase (Escherichia coli K-12), sequence (P14900 whole entry): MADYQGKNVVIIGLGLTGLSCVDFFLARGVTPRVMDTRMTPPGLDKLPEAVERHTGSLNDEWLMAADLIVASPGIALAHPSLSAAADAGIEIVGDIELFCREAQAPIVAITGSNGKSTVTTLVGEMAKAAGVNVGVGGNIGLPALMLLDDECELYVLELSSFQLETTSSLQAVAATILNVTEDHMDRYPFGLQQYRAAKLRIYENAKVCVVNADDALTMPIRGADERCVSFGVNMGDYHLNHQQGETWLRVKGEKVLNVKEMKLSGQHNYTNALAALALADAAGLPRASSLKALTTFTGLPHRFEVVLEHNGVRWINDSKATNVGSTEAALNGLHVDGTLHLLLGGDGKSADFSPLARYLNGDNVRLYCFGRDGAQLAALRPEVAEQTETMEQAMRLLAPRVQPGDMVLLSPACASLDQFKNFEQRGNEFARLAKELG

COc1cccc(CCN2CN=C(SCc3ccc(Cl)cc3)NC2)c1
MIC [1]: 16 µg/mL (≈ 42.6 µM)

COc1cc(Cc2cnc(N)nc2N)cc(OC)c1OC
inhibition [2]: Active

CN1CN=C(SCc2ccc(Cl)cc2)NC1
MIC [3]: > 256 µg/mL | MIC [4]: > 256 µg/mL | MIC [5]: > 256 µg/mL | MIC [6]: 256 µg/mL (≈ 1000 µM) | MIC [7]: > 256 µg/mL | MIC [1]: 8 µg/mL (≈ 31.3 µM) | Activity [8]: > 256 µg/mL | MIC [9]: > 256 µg/mL | MIC [10]: > 256 µg/mL | MIC [11]: > 256 µg/mL

CN[C@@H]1[C@H](O)[C@H](NC)[C@H]2O[C@@]3(O)C(=O)C[C@@H](C)O[C@H]3O[C@@H]2[C@H]1O
inhibition [2]: Active | inhibition [12]: Active | inhibition [13]: Active | inhibition [14]: Active

Cc1cc(NS(=O)(=O)c2ccc(N)cc2)no1
inhibition [15]: Active | inhibition [2]: Active | inhibition [16]: Active | inhibition [12]: Active | inhibition [13]: Active | inhibition [17]: Active | inhibition [14]: Active

COc1ccc(CCN2CN=C(SCc3ccccc3)NC2)cc1OC
MIC [3]: > 256 µg/mL | MIC [4]: > 256 µg/mL | MIC [5]: 32 µg/mL (≈ 86.1 µM) | MIC [6]: 8 µg/mL (≈ 21.5 µM) | MIC [7]: 128 µg/mL (≈ 345 µM) | MIC [1]: 256 µg/mL (≈ 689 µM) | Activity [8]: > 256 µg/mL | MIC [9]: 16 µg/mL (≈ 43.1 µM) | MIC [10]: > 256 µg/mL | MIC [11]: > 256 µg/mL

COc1ccc(CCN2CN=C(SCc3ccc(I)cc3)NC2)cc1OC
MIC [1]: 256 µg/mL (≈ 515 µM)

O=CN(O)CCCP(=O)(O)O
inhibition [18]: Active | inhibition [19]: Active | inhibition [20]: Active | inhibition [21]: Active | inhibition [22]: Active | inhibition [23]: Active | inhibition [24]: Active | inhibition [25]: Active | inhibition [26]: Active | inhibition [16]: Active | inhibition [27]: Active | inhibition [28]: Active | inhibition [12]: Active | inhibition [29]: Active | inhibition [30]: Active | inhibition [31]: Active | inhibition [32]: Active | inhibition [33]: Active | inhibition [34]: Active | inhibition [35]: Active | inhibition [17]: Active | inhibition [36]: Active | inhibition [37]: Active | inhibition [38]: Active | inhibition [39]: Active

COc1ccc(CCN2CN=C(SCc3cc(Cl)cc(Cl)c3)NC2)cc1OC
MIC [1]: 16 µg/mL (≈ 36.3 µM)

COc1ccc(CCN2CN=C(SCc3cccc(Cl)c3)NC2)cc1OC
MIC [1]: > 256 µg/mL

COc1ccc(CCN2CN=C(SCc3ccccc3Cl)NC2)cc1OC
MIC [1]: > 256 µg/mL

COc1ccc(CCN2CN=C(SCc3ccc(Br)cc3)NC2)cc1OC
MIC [1]: 8 µg/mL (≈ 17.8 µM)

COc1ccc(CSC2=NCN(CCc3ccc(OC)c(OC)c3)CN2)cc1
MIC [1]: 512 µg/mL (≈ 1280 µM)

COc1ccc(CCN2CN=C(SCc3ccc(Cl)c(Cl)c3)NC2)cc1OC
MIC [1]: 8 µg/mL (≈ 18.2 µM)

COc1ccc(CCN2CN=C(SCc3ccc(Cl)cc3)NC2)cc1
MIC [1]: 64 µg/mL (≈ 170 µM)

COc1ccc(CN2CN=C(SCc3ccc(Cl)cc3)NC2)cc1OC
MIC [1]: 32 µg/mL (≈ 81.6 µM)

Clc1ccc(CCN2CN=C(SCc3ccc(Cl)cc3)NC2)cc1
MIC [1]: 32 µg/mL (≈ 84.1 µM)

Clc1ccc(CSC2=NCN(CCc3ccccc3)CN2)cc1
MIC [1]: 8 µg/mL (≈ 23.1 µM)

COc1ccc(CCN2CN=C(SCc3ccc(C)cc3)NC2)cc1OC
MIC [1]: 64 µg/mL (≈ 166 µM)

COc1ccc(CCN2CN=C(SCc3ccc([N+](=O)[O-])cc3)NC2)cc1OC
MIC [1]: > 256 µg/mL

CCN1CN=C(SCc2ccc(Cl)cc2)NC1
MIC [1]: 8 µg/mL (≈ 29.7 µM)
